Assays:
Format in all cases: in vivo
[1] = test system: velvetleaf (Abutilon theophrasti); assay: Test G Pre-Emergence Protocol; conditions: Abutilon theophrasti, pre-emergence, 312 h, evaluated after 13 days; for pest or weed control at 15.625 g/ha: 15.625 g ai/ha; for pest or weed control at 15.625 g/ha / pest or weed control at 250 g/ha: read-out: Velvetleaf damage rating (100=total damage to plant; 0=no damage to plant); for pest or weed control at 62.5 g/ha: 62.5 g ai/ha, 100=total damage to plant, 0=no damage to plant, read-out: plant damage rating, Velvetleaf; for pest or weed control at 250 g/ha: 250 g ai/ha
Method in brief: (§1)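 Spraying took place one day after sowing, at 15.625, 62.5 or 250 g/ha, using an acetone/water (50:50) spray solution containing 0.5% Tween 20. Plants were kept under glasshouse conditions (24/16 °C, 14 h light, 65% humidity, watered twice daily), and injury was rated 0–100 at day 13.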

[2] = test system: ivy-leaved morning glory (Ipomoea hederacea); assay: Test G Pre-Emergence Protocol; conditions: Ipomoea, pre-emergence, 312 h, evaluated after 13 days; for pest or weed control at 62.5 g/ha: 62.5 g ai/ha, 100=total damage to plant, 0=no damage to plant, read-out: plant damage rating, Morningglory, Ivy-leaved; for pest or weed control at 15.625 g/ha: 15.625 g ai/ha, read-out: Morning-glory, Ivy-leaved damage rating (100=total damage to plant; 0=no damage to plant); for pest or weed control at 250 g/ha: 250 g ai/ha, read-out: Morningglory, Ivy-leaved damage rating (100=total damage to plant; 0=no damage to plant)
Method in brief: as §1

[3] = test system: giant foxtail (Setaria faberi); assay: Test G Pre-Emergence Protocol; conditions: Setaria faberi, pre-emergence, 312 h, evaluated after 13 days; for pest or weed control at 15.625 g/ha: 15.625 g ai/ha; for pest or weed control at 15.625 g/ha / pest or weed control at 250 g/ha: read-out: Foxtail, Giant damage rating (100=total damage to plant; 0=no damage to plant); for pest or weed control at 62.5 g/ha: 62.5 g ai/ha, 100=total damage to plant, 0=no damage to plant, read-out: plant damage rating, Foxtail, Giant; for pest or weed control at 250 g/ha: 250 g ai/ha
Method in brief: as §1

corn (Zea mays) [4] = assay: Test G Pre-Emergence Protocol; conditions: Zea mays, pre-emergence, 312 h, evaluated after 13 days; for plant injury at 15.625 g/ha: 15.625 g ai/ha; for plant injury at 15.625 g/ha / plant injury at 250 g/ha: read-out: Corn damage rating (100=total damage to plant; 0=no damage to plant); for plant injury at 62.5 g/ha: 62.5 g ai/ha, 100=total damage to plant, 0=no damage to plant, read-out: plant damage rating, Corn; for plant injury at 250 g/ha: 250 g ai/ha
Method in brief: as §1

[5] = test system: redroot pigweed (Amaranthus retroflexus); assay: Test G Pre-Emergence Protocol; conditions: Amaranthus retroflexus, pre-emergence, 312 h, evaluated after 13 days; for pest or weed control at 15.625 g/ha: 15.625 g ai/ha; for pest or weed control at 15.625 g/ha / pest or weed control at 250 g/ha: read-out: Pigweed, Redroot damage rating (100=total damage to plant; 0=no damage to plant); for pest or weed control at 62.5 g/ha: 62.5 g ai/ha, 100=total damage to plant, 0=no damage to plant, read-out: plant damage rating, Pigweed, Redroot; for pest or weed control at 250 g/ha: 250 g ai/ha
Method in brief: as §1

[6] = test system: barnyardgrass (Echinochloa crus-galli); assay: Test G Pre-Emergence Protocol; conditions: Echinochloa crus-galli, pre-emergence, 312 h, evaluated after 13 days; for pest or weed control at 15.625 g/ha: 15.625 g ai/ha, read-out: Barnyard grass damage rating (100=total damage to plant; 0=no damage to plant); for pest or weed control at 62.5 g/ha: 62.5 g ai/ha, 100=total damage to plant, 0=no damage to plant, read-out: plant damage rating, Barnyardgrass; for pest or weed control at 250 g/ha: 250 g ai/ha, read-out: Barnyardgrass damage rating (100=total damage to plant; 0=no damage to plant)
Method in brief: as §1

[7] = test system: velvetleaf (Abutilon theophrasti); assay: Test G Post-Emergence Protocol; conditions: Abutilon theophrasti, post-emergence, 312 h; for pest or weed control at 15.625 g/ha: 15.625 g ai/ha, evaluated after 13 days (100=total damage to plant; 0=no damage to plant), read-out: Velvetleaf damage rating; for pest or weed control at 62.5 g/ha: 62.5 g ai/ha, read-out: Velvetleaf damage rating (100=total damage to plant; 0=no damage to plant); for pest or weed control at 62.5 g/ha / pest or weed control at 250 g/ha: evaluated after 13 days; for pest or weed control at 250 g/ha: 250 g ai/ha, read-out: damage to plant, Velvetleaf (100=total damage to plant; 0=no damage to plant)
Method in brief: (§2)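 Sow in soil; grow 8 d (24/16 °C, 14 h light, 65% humidity); spray 15.625/62.5/250 g/ha in acetone:water 50:50 + 0.5% Tween 20; grow on, water twice daily; score damage 0–100 at 13 d.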

[8] = test system: ivy-leaved morning glory (Ipomoea hederacea); assay: Test G Post-Emergence Protocol; conditions: Ipomoea, post-emergence, 312 h; for pest or weed control at 15.625 g/ha: 15.625 g ai/ha, evaluated after 13 days (100=total damage to plant; 0=no damage to plant), read-out: Morningglory, Ivy-leaved damage rating; for pest or weed control at 62.5 g/ha: 62.5 g ai/ha, read-out: Morningglory, Ivy-leaved damage rating (100=total damage to plant; 0=no damage to plant); for pest or weed control at 62.5 g/ha / pest or weed control at 250 g/ha: evaluated after 13 days; for pest or weed control at 250 g/ha: 250 g ai/ha, read-out: damage to plant, Morningglory, Ivy-leaved (100=total damage to plant; 0=no damage to plant)
Method in brief: as §2

[9] = test system: giant foxtail (Setaria faberi); assay: Test G Post-Emergence Protocol; conditions: Setaria faberi, post-emergence, 312 h; for pest or weed control at 15.625 g/ha: 15.625 g ai/ha, evaluated after 13 days (100=total damage to plant; 0=no damage to plant), read-out: Foxtail, Giant damage rating; for pest or weed control at 62.5 g/ha: 62.5 g ai/ha, read-out: Foxtail, Giant damage rating (100=total damage to plant; 0=no damage to plant); for pest or weed control at 62.5 g/ha / pest or weed control at 250 g/ha: evaluated after 13 days; for pest or weed control at 250 g/ha: 250 g ai/ha, read-out: damage to plant, Foxtail, Giant (100=total damage to plant; 0=no damage to plant)
Method in brief: as §2

corn (Zea mays) [10] = assay: Test G Post-Emergence Protocol; conditions: Zea mays, post-emergence, 312 h; for plant injury at 15.625 g/ha: 15.625 g ai/ha, evaluated after 13 days (100=total damage to plant; 0=no damage to plant), read-out: Corn damage rating; for plant injury at 62.5 g/ha: 62.5 g ai/ha, read-out: Corn damage rating (100=total damage to plant; 0=no damage to plant); for plant injury at 62.5 g/ha / plant injury at 250 g/ha: evaluated after 13 days; for plant injury at 250 g/ha: 250 g ai/ha, read-out: damage to plant, Corn (100=total damage to plant; 0=no damage to plant)
Method in brief: as §2

[11] = test system: redroot pigweed (Amaranthus retroflexus); assay: Test G Post-Emergence Protocol; conditions: Amaranthus retroflexus, post-emergence, 312 h; for pest or weed control at 15.625 g/ha: 15.625 g ai/ha, evaluated after 13 days (100=total damage to plant; 0=no damage to plant), read-out: Pigweed, Redroot damage rating; for pest or weed control at 62.5 g/ha: 62.5 g ai/ha, read-out: Pigweed, Redroot damage rating (100=total damage to plant; 0=no damage to plant); for pest or weed control at 62.5 g/ha / pest or weed control at 250 g/ha: evaluated after 13 days; for pest or weed control at 250 g/ha: 250 g ai/ha, read-out: damage to plant, Pigweed, Redroot (100=total damage to plant; 0=no damage to plant)
Method in brief: as §2

[12] = test system: barnyardgrass (Echinochloa crus-galli); assay: Test G Post-Emergence Protocol; conditions: Echinochloa crus-galli, post-emergence, 312 h; for pest or weed control at 15.625 g/ha: 15.625 g ai/ha, evaluated after 13 days (100=total damage to plant; 0=no damage to plant), read-out: Barnyardgrass damage rating; for pest or weed control at 62.5 g/ha: 62.5 g ai/ha, read-out: Barnyardgrass damage rating (100=total damage to plant; 0=no damage to plant); for pest or weed control at 62.5 g/ha / pest or weed control at 250 g/ha: evaluated after 13 days; for pest or weed control at 250 g/ha: 250 g ai/ha, read-out: damage to plant, Barnyardgrass (100=total damage to plant; 0=no damage to plant)
Method in brief: as §2

Structure (SMILES) | pest or weed control at 15.625 g/ha [1] | pest or weed control at 62.5 g/ha [1] | pest or weed control at 250 g/ha [1] | pest or weed control at 62.5 g/ha [2] | pest or weed control at 15.625 g/ha [3] | pest or weed control at 62.5 g/ha [3] | pest or weed control at 250 g/ha [3] | plant injury at 15.625 g/ha (corn (Zea mays) [4]) | plant injury at 62.5 g/ha (corn (Zea mays) [4]) | plant injury at 250 g/ha (corn (Zea mays) [4]) | pest or weed control at 15.625 g/ha [5] | pest or weed control at 62.5 g/ha [5] | pest or weed control at 250 g/ha [5] | pest or weed control at 15.625 g/ha [6] | pest or weed control at 62.5 g/ha [6] | pest or weed control at 250 g/ha [6] | pest or weed control at 15.625 g/ha [7] | pest or weed control at 62.5 g/ha [7] | pest or weed control at 250 g/ha [7] | pest or weed control at 15.625 g/ha [8] | other results
CN1C[C@H](c2ccc3ccccc3c2)[C@@H](C(=O)Nc2cccc(F)c2F)C1=O (racemic) [Compound 1501] | 0% | 0% | 0% | 0% | 0% | 70% | 80% | 0% | 0% | 0% | 0% | 0% | 0% | 0% | 50% | 60% | 0% | 0% | 0% | 0% | pest or weed control at 62.5 g/ha [8]: 0%; pest or weed control at 250 g/ha [8]: 0%; pest or weed control at 15.625 g/ha [9]: 40%; pest or weed control at 62.5 g/ha [9]: 60%; pest or weed control at 250 g/ha [9]: 60%; plant injury at 15.625 g/ha (corn (Zea mays) [10]): 10%; plant injury at 62.5 g/ha (corn (Zea mays) [10]): 20%; plant injury at 250 g/ha (corn (Zea mays) [10]): 30%; pest or weed control at 15.625 g/ha [11]: 0%; pest or weed control at 62.5 g/ha [11]: 0%; pest or weed control at 250 g/ha [11]: 0%; pest or weed control at 15.625 g/ha [12]: 10%; pest or weed control at 62.5 g/ha [12]: 50%; pest or weed control at 250 g/ha [12]: 60%
Cc1cnc(NC(=O)[C@@H]2C(=O)N(C)C[C@H]2c2ccc(C(F)(F)F)cc2)nn1 (racemic) [Compound 1508] | 0% | 0% | 0% | 0% | 0% | 0% | 0% | 0% | 0% | 0% | 0% | 0% | 0% | 0% | 0% | 0% | 0% | 0% | 0% | 0% | pest or weed control at 15.625 g/ha [2]: 0%; pest or weed control at 250 g/ha [2]: 0%; pest or weed control at 62.5 g/ha [8]: 0%; pest or weed control at 250 g/ha [8]: 0%; pest or weed control at 15.625 g/ha [9]: 0%; pest or weed control at 62.5 g/ha [9]: 0%; pest or weed control at 250 g/ha [9]: 0%; plant injury at 15.625 g/ha (corn (Zea mays) [10]): 0%; plant injury at 62.5 g/ha (corn (Zea mays) [10]): 0%; plant injury at 250 g/ha (corn (Zea mays) [10]): 0%; pest or weed control at 15.625 g/ha [11]: 0%; pest or weed control at 62.5 g/ha [11]: 0%; pest or weed control at 250 g/ha [11]: 0%; pest or weed control at 15.625 g/ha [12]: 0%; pest or weed control at 62.5 g/ha [12]: 0%; pest or weed control at 250 g/ha [12]: 0%
CN1C[C@@H](c2ccc(C(F)(F)F)cc2)[C@H](C(=O)Nc2cc(F)ncn2)C1=O (racemic) [Compound 1509] | 0% | 0% | 0% | 0% | 0% | 0% | 0% | 0% | 0% | 0% | 0% | 0% | 0% | 0% | 0% | 0% | 0% | 0% | 0% | 0% | pest or weed control at 15.625 g/ha [2]: 0%; pest or weed control at 250 g/ha [2]: 0%; pest or weed control at 62.5 g/ha [8]: 0%; pest or weed control at 250 g/ha [8]: 0%; pest or weed control at 15.625 g/ha [9]: 0%; pest or weed control at 62.5 g/ha [9]: 0%; pest or weed control at 250 g/ha [9]: 0%; plant injury at 15.625 g/ha (corn (Zea mays) [10]): 0%; plant injury at 62.5 g/ha (corn (Zea mays) [10]): 0%; plant injury at 250 g/ha (corn (Zea mays) [10]): 0%; pest or weed control at 15.625 g/ha [11]: 0%; pest or weed control at 62.5 g/ha [11]: 0%; pest or weed control at 250 g/ha [11]: 0%; pest or weed control at 15.625 g/ha [12]: 0%; pest or weed control at 62.5 g/ha [12]: 0%; pest or weed control at 250 g/ha [12]: 0%

— patent US12077503B2, “Substituted cyclic amides and their use as herbicides” (FMC CORPORATION, priority 2015, dated 2024)
